Numbering of substitutions follows the chain as printed. pEC50: −log10 of the molar value. Where no end group is shown, it is not given here.
Legend:
human ASIC3 [1] = molecular target: T1, human ASIC3 (Homo sapiens, UniProt Q9UHC3); experiment: cell-based
T1 construct: CHO cells stably expressing human ASIC3 (NM_004769.1)
T1 sequence (Q9UHC3 1-531): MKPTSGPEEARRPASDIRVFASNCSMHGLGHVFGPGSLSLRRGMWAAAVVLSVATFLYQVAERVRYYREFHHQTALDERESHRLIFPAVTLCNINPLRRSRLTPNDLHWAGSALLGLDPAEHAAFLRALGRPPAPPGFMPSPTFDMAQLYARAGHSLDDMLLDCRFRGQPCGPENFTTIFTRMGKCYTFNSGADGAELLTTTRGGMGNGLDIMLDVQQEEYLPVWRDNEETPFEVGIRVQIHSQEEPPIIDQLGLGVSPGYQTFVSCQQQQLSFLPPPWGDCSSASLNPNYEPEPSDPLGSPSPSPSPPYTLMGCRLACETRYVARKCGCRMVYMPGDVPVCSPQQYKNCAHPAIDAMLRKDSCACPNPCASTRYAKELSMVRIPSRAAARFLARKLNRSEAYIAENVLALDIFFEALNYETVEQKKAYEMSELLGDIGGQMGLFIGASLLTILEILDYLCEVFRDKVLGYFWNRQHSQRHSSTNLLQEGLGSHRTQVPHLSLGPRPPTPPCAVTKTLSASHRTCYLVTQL

human ASIC3 [2] = molecular target: T1, human ASIC3; experiment: pH-dependence of steady-state desensitization (SSD) of ASIC3; type: cell-based; conditions: conditioning pH 7.0, 30 µM
Protocol: Lastly, we tested the effect of 30 µM WRPRFa on SSD of ASIC3. First, we sought to determine if, like activation, WRPRFa also changed the pH-dependence of steady-state desensitization for ASIC3. We preconditioned cells at pH 8.0–7.0 for 20 s to elicit SSD, followed immediately by a test pulse to pH 6.3 (Fig. 7F and G) to measure the fraction of channels that were not desensitized. The current evoked by each pH 6.3 test pulse was normalized to the pH 6.3 pulse following pH 8.0 conditioning and plotted against the conditioning pH to determine the pH-dependence of SSD. For untreated cells, the peak current (Ipk) was recorded, and for WRPRFa-treated cells, the current 3 s after the peak (I3s) was used. Untreated channels were completely desensitized at pH 7.0, while the WRPRFa-treated channels reached a plateau at pH 7.0 with about 30% of channels desensitized. […] The 0.11 unit shift is larger than that reported for RPRFa (0.03 unit shift)[30].

human ASIC3 [3] = molecular target: T1, human ASIC3; type: cell-based; conditions: from pH-dependence of activation
ASIC3 E78Q = molecular target: T2, ASIC3 E78Q (Homo sapiens, UniProt Q9UHC3, E78Q); experiment: MPC peptide activity on ASIC3 E78Q mutant (I3s/Ipk, peak current, double mutant cycle); type: cell-based; conditions: read-out: EC50 (95% CI)
T2 construct: human ASIC3 (NM_004769.4); P2A-mCherry reporter (C, cleaved yes); expressed in transfected cells; host or cells: CHO cells (85050302, Sigma), transient transfection
T2 sequence (Q9UHC3 1-531 E78Q): T1 sequence (Q9UHC3 1-531) with E78Q
Excerpt: We then asked which of the two WRPRFa arginines interacts with the E78/E421 pair. […] To this end, we used a double mutant cycle approach to identify coupling between site 2 or site 4 of WRPRFa with the E78/E421 pair. In this case, the double mutant cycle experiment compared the change in potency caused by single mutations in either WRPRFa or ASIC3 against the change in potency caused by simultaneous mutations in WRPRFa and ASIC3. A coupling coefficient (Ω) can be calculated by dividing the product of the WT/WRPRFa potency and double mutant potency by the product of the two single mutant potencies.
(§1) For peptide concentration-response curves, Bottom was set to 0 and Top was constrained to ≤ 1 for peptides that approached plateau phase or where I3s/Ipk reached 1. […] For activation- or desensitization-pH curves, Bottom was set to 0 and Top constrained to 1.

ASIC3 E378Q = molecular target: T3, ASIC3 E378Q (Homo sapiens, UniProt Q9UHC3, E378Q); experiment: MPC peptide activity on ASIC3 E378Q mutant; type: cell-based; conditions: read-out: EC50 (95% CI)
T3 construct: human ASIC3 (NM_004769.4); P2A-mCherry reporter (C, cleaved yes); expressed in transfected cells; host or cells: CHO cells (85050302, Sigma), transient transfection
T3 sequence (Q9UHC3 1-531 E378Q): T1 sequence (Q9UHC3 1-531) with E378Q
Protocol: We individually mutated the four glutamates to glutamine to remove their charge but maintain the side chain structure (Fig. 4C). We tested each mutant by incubating HEK cells stably expressing ASIC3 or CHO cells transfected with mutant ASIC3 with 30 µM WRPRFa before a pH 6.3 acid stimulus.
All mutagenesis was performed at Genscript, and sequences were verified by nanopore sequencing by Plasmidsaurus (Eugene, OR). The numbering of ASIC3 amino acids is based on RefSeq NP_004760.1. Plasmids were transfected into CHO cells using Lipofectamine 3000 (Thermo) according to the manufacturer’s protocol. Cells were used for patch-clamp recordings 24–48 h after transfection.
CHO and HEK cells were tested in the whole-cell configuration on MPC platforms using an Axopatch 200B amplifier (Axon Instruments, San Jose, CA) and a Digidata 1322A or Digidata 1440A digitizer (Axon) using pClamp 9.2 or 10.7 (Molecular Devices, San Jose, CA), respectively. When testing transfected cells, red fluorescence from the cleaved mCherry reporter was used to identify cells expressing ASIC3, ASIC131, or ASIC313. For cells expressing transfected ASIC1a or ASIC2a, the green signal from the cleaved eGFP reporter was used. All electrophysiology data were analyzed with Clampfit 11.1 (Molecular Devices).

ASIC131 = molecular target: T4, ASIC131 (Homo sapiens, UniProt Q9UHC3); experiment: MPC WRPRFa concentration-response on concatemer ASIC131; type: cell-based; conditions: read-out: lower limit EC50
T4 construct: placing human ASIC1a and human ASIC3 ORFs in tandem; expressed in transfected cells; host or cells: WT CHO cells (85050302, Sigma), transient transfection
T4 sequence (Q9UHC3 1-531): T1 sequence (Q9UHC3 1-531)
Excerpt: as §1

WRPRF-NH2 [WRPRFa]
pEC50 (human ASIC3 [1]): 5.21 | channels affected (human ASIC3 [1]; 100 µM, MPC): ~90% | channels desensitized at plateau (human ASIC3 [2]): about 30% | peptide-bound channels activated by pH 6.3 (human ASIC3 [3]): 99.7% | pEC50 (ASIC3 E78Q): 6.69 | pEC50 (ASIC3 E378Q): 5.02 | pEC50 (ASIC131): ≤ 4.49

Reference: paper PMC12738692, “Identification, characterization, and structure-activity relationship of the ASIC3-selective peptide WRPRFa” (Communications Chemistry, 2025)
